Test results: PMC3351969 (European Journal of Medical Research, 2009)

Key:
[1] = test system: cytochrome p450 3A4 (CYP3A4); assay: monoethylglycinexylidide; type: in vivo, human
[2] = indocyanine green clearance; type: in vivo, human; conditions: HIV-patients, before and 6 months after initiation of HAART

Row | MEGX test ([1]; HIV-patients treated with various ART combinations, p = 0.23 vs healthy controls) | MEGX test ([1]; healthy controls without medication) | Compound | indocyanine green clearance in relation to anti-retroviral regimens [2]
1 | 49.9 ± 25.48 µg/L | 66.29 ± 38.55 µg/L | CCNCC(=O)Nc1c(C)cccc1C [MEGX, monoethylglycinexylidide] | 
2 |  |  | CC1(C)C(/C=C/C=C/C=C/C=C2\N(CCCCS(=O)(=O)O)c3ccc4ccccc4c3C2(C)C)=[N+](CCCCS(=O)(=O)[O-])c2ccc3ccccc3c21 [indocyanine green] | no correlation could be found
